This note sets out measurements from patent US8629102B2, “3-hydroxyisothiazole 1-oxide derivatives” (Mochida Pharmaceutical Co., Ltd., priority 2011, dated 2014).

Bounds are passed on as bounds.

The experiment has as its target T1, GPR40 of human origin (Homo sapiens, UniProt O14842).
T1 construct: expressed in transfected cells
Put plainly: Agonist action on GPR40 of human origin (intracellular Ca2+ change). The class given is cell-based. Particulars: CHO cell strain stably expressing GPR40 of human origin; change in Ca2+ concentration, fluorescent calcium indicator. An outline of the steps:
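CHO cells stably expressing human GPR40, cultured overnight, then loaded 1 h with Calcium 4 dye plus probenecid in HEPES-buffered HBSS. Compound added in 20 mM HEPES-HBSS; intracellular Ca2+ change read by fluorescence, EC50 from dose-response of fluorescence change.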

T1 sequence (O14842 whole entry): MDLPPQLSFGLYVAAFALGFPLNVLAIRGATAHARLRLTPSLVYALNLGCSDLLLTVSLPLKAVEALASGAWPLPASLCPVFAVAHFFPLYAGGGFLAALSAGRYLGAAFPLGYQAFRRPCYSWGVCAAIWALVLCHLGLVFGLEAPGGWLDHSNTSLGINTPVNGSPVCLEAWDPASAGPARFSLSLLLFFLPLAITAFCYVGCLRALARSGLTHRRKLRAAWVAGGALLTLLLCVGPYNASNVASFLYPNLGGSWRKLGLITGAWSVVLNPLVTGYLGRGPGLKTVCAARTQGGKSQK

By EC50 is commonly meant the concentration needed to bring the measured effect to its halfway point. As to `Cc1ccc(Oc2cccc3c2CC[C@H]3Oc2ccc(-c3cc(O)n[s+]3[O-])cc2)nc1` (stereo partly drawn) [Example 134, 3-hydroxy-5-(4-(((R)-4-((5-methylpyridin-2-yl)oxy)-2,3-dihydro-1H-inden-1-yl)oxy)phenyl)isothiazole 1-oxide], the half-maximal effective concentration (EC50) was < 300 nM.
To `COc1cc(C)c(Oc2cccc3c2CC[C@H]3Oc2ccc(-c3cc(O)n[s+]3[O-])cc2)cn1` (stereo partly drawn) [Example 105, 3-hydroxy-5-(4-(((R)-4-((6-methoxy-4-methylpyridin-3-yl)oxy)-2,3-dihydro-1H-inden-1-yl)oxy)phenyl)isothiazole 1-oxide] belongs < 300 nM; to `CC(C)Oc1ccc(-c2cccc3c2CC[C@H]3Oc2ccc(-c3cc(O)n[s+]3[O-])cc2)cc1` (stereo partly drawn) [Example 31, 5-(4-(((R)-4-(4-isopropoxyphenyl)-2,3-dihydro-1H-inden-1-yl)oxy)phenyl)-3-hydroxyisothiazole 1-oxide], 300 to 3000 nM.
On to `COc1cccc(Oc2cccc3c2CC[C@H]3Oc2ccc(-c3cc(O)n[s+]3[O-])cc2)c1` (stereo partly drawn) [Example 91, 3-hydroxy-5-(4-(((R)-4-(3-methoxyphenoxy)-2,3-dihydro-1H-inden-1-yl)oxy)phenyl)isothiazole 1-oxide], for which the 50% effective concentration (EC50) is < 300 nM.
The value for `N#Cc1ccc(Oc2cccc3c2CC[C@H]3Oc2ccc(-c3cc(O)n[s+]3[O-])cc2)cc1` (single isomer, unassigned) [Example 83] was < 300 nM.
Consider `[O-][s+]1nc(O)cc1-c1ccc(O[C@@H]2CCc3c(-c4cc(C(F)(F)F)ccc4Cl)cccc32)cc1` (stereo partly drawn) [Example 68, 5-(4-(((R)-4-(2-chloro-5-trifluoromethylphenyl)-2,3-dihydro-1H-inden-1-yl)oxy)phenyl)-3-hydroxyisothiazole 1-oxide], for which the EC50 was 300 to 3000 nM.
As to `[O-][s+]1nc(O)cc1-c1ccc(O[C@@H]2CCc3c(Oc4cccnc4)cccc32)cc1` (single isomer, unassigned) [Example 85], the EC50 was < 300 nM.
For `[O-][s+]1nc(O)cc1-c1ccc(OCCc2ccccc2Oc2ccccc2)cc1` (stereo not drawn) [Example 161, 3-hydroxy-5-(4-(2-phenoxyphenethoxy)phenyl)isothiazole 1-oxide], the EC50 is < 300 nM.
To `COc1ccc(Oc2cccc3c2CC[C@H]3Oc2ccc(-c3cc(O)n[s+]3[O-])cc2)cc1` (stereo partly drawn) [Example 92, 3-hydroxy-5-(4-(((R)-4-(4-methoxyphenoxy)-2,3-dihydro-1H-inden-1-yl)oxy)phenyl)isothiazole 1-oxide] belongs < 300 nM.
Take `N#Cc1ccc(-c2cccc3c2CC[C@H]3Oc2ccc(-c3cc(O)n[s+]3[O-])cc2)cn1` (stereo partly drawn) [Example 157, 5-((1R)-1-(4-(3-hydroxy-1-oxidoisothiazol-5-yl)phenoxy)-2,3-dihydro-1H-inden-4-yl)picolinonitrile]: the EC50 lay within 300 to 3000 nM.
The value for `Cc1ccnc(Oc2cccc3c2CC[C@H]3Oc2ccc(-c3cc(O)n[s+]3[O-])cc2)c1` (stereo partly drawn) [Example 133, 3-hydroxy-5-(4-(((R)-4-((4-methylpyridin-2-yl)oxy)-2,3-dihydro-1H-inden-1-yl)oxy)phenyl)isothiazole 1-oxide] was < 300 nM; that for `Cc1nc(OCCC(C)(C)O)ccc1-c1cccc2c1OCC2Oc1ccc(-c2cc(O)n[s+]2[O-])cc1` (single isomer, unassigned) [Example 154-a, 3-hydroxy-5-(4-((7-(6-(3-hydroxy-3-methylbutoxy)-2-methylpyridin-3-yl)-2,3-dihydrobenzofuran-3-yl)oxy)phenyl)isothiazole 1-oxide] was < 300 nM; that for `[O-][s+]1nc(O)cc1-c1ccc(O[C@@H]2CCc3c(-c4ccc(Cl)s4)cccc32)cc1` (stereo partly drawn) [Example 81, 5-(4-(((R)-4-(5-chlorothiophen-2-yl)-2,3-dihydro-1H-inden-1-yl)oxy)phenyl)-3-hydroxyisothiazole 1-oxide] was < 300 nM.
The value for `N#Cc1ccc(-c2cccc3c2CC[C@H]3Oc2ccc(-c3cc(O)n[s+]3[O-])cc2)cc1` (stereo partly drawn) [Example 156, 4-((1R)-1-(4-(3-hydroxy-1-oxidoisothiazol-5-yl)phenoxy)-2,3-dihydro-1H-inden-4-yl)benzonitrile] was < 300 nM.
Regarding `C=Cc1ccc(-c2cccc3c2CC[C@H]3Oc2ccc(-c3cc(O)n[s+]3[O-])cc2)cc1` (stereo partly drawn) [Example 25, 5-(4-(((R)-4-(4-vinylphenyl)-2,3-dihydro-1H-inden-1-yl)oxy)phenyl)-3-hydroxyisothiazole 1-oxide], the EC50 was 300 to 3000 nM.
`[O-][s+]1nc(O)cc1-c1ccc(OCc2ccc(Oc3ccccc3)cc2)cc1` (stereo not drawn) [Example 159, 3-hydroxy-5-(4-((4-phenoxybenzyl)oxy)phenyl)isothiazole 1-oxide]: the EC50 was < 300 nM.
As for `Cc1ccc(-c2cccc3c2CC[C@H]3Oc2ccc(-c3cc(O)n[s+]3[O-])cc2)c(C)c1` (stereo partly drawn) [Example 36, 5-(4-(((R)-4-(2,4-dimethylphenyl)-2,3-dihydro-1H-inden-1-yl)oxy)phenyl)-3-hydroxyisothiazole 1-oxide], the EC50 is < 300 nM.
On to `Cc1ccc(C)c(-c2cccc3c2CC[C@H]3Oc2ccc(-c3cc(O)n[s+]3[O-])cc2)c1` (stereo partly drawn) [Example 37, 5-(4-(((R)-4-(2,5-dimethylphenyl)-2,3-dihydro-1H-inden-1-yl)oxy)phenyl)-3-hydroxyisothiazole 1-oxide], for which the EC50 is < 300 nM.
To `O=C(c1ccc(Oc2cccc3c2CC[C@H]3Oc2ccc(-c3cc(O)n[s+]3[O-])cc2)cc1)N1CCCC1` (stereo partly drawn) [Example 147, (4-(((R)-1-(4-(3-hydroxy-1-oxidoisothiazol-5-yl)phenoxy)-2,3-dihydro-1H-inden-4-yl)oxy)phenyl)(pyrrolidine-1-yl)methanone] belongs < 300 nM; to `[O-][s+]1nc(O)cc1-c1ccc(OC2COc3c(Br)cccc32)cc1` (single isomer, unassigned) [Example 150, 5-(4-((7-bromo-2,3-dihydrobenzofuran-3-yl)oxy)phenyl)-3-hydroxyisothiazole 1-oxide], < 300 nM.
`CS(=O)(=O)CCCOc1ccc(Oc2cccc3c2CC[C@H]3Oc2ccc(-c3cc(O)n[s+]3[O-])cc2)cc1` (stereo partly drawn) [Example 115, 3-hydroxy-5-(4-(((R)-4-(4-(3-(methylsulfonyl)propoxy)phenoxy)-2,3-dihydro-1H-inden-1-yl)oxy)phenyl)isothiazole 1-oxide]: the half-maximal effective concentration (EC50) was < 300 nM.
The value for `[O-][s+]1nc(O)cc1-c1ccc(O[C@@H]2CCc3c(-c4ccc(Cl)cc4F)cccc32)cc1` (stereo partly drawn) [Example 16, 5-(4-(((R)-4-(4-chloro-2-fluorophenyl)-2,3-dihydro-1H-inden-1-yl)oxy)phenyl)-3-hydroxyisothiazole 1-oxide] was 300 to 3000 nM; that for `CCOc1cccc(-c2cccc3c2CC[C@H]3Oc2ccc(-c3cc(O)n[s+]3[O-])cc2)c1` (stereo partly drawn) [Example 32, 5-(4-(((R)-4-(3-ethoxyphenyl)-2,3-dihydro-1H-inden-1-yl)oxy)phenyl)-3-hydroxyisothiazole 1-oxide] was 300 to 3000 nM.
The value for `[O-][s+]1nc(O)cc1-c1ccc(O[C@@H]2CCc3c(-c4ccccc4OC(F)(F)F)cccc32)cc1` (stereo partly drawn) [Example 65, 5-(4-(((R)-4-(2-trifluoromethoxyphenyl)-2,3-dihydro-1H-inden-1-yl)oxy)phenyl)-3-hydroxyisothiazole 1-oxide] was < 300 nM.
To `Cc1cccc(Oc2cccc3c2CC[C@H]3Oc2ccc(-c3cc(O)n[s+]3[O-])cc2)c1` (stereo partly drawn) [Example 94, 3-hydroxy-5-(4-(((R)-4-(m-tolyloxy)-2,3-dihydro-1H-inden-1-yl)oxy)phenyl)isothiazole 1-oxide] belongs < 300 nM; to `CN1CC2(CCN(Cc3ccc(COc4ccc(-c5cc(O)n[s+]5[O-])cc4)cc3)CC2)c2ccccc21` (stereo not drawn) [Example 124, 3-hydroxy-5-(4-((4-((1-methylspiro[indolin-3,4′-piperidin]-1′-yl)methyl)benzyl)oxy)phenyl)isothiazole 1-oxide], 300 to 3000 nM.
As for `[O-][s+]1nc(O)cc1-c1ccc(O[C@@H]2CCc3c(-c4cc(F)cc(F)c4)cccc32)cc1` (stereo partly drawn) [Example 12, 5-(4-(((R)-4-(3,5-difluorophenyl)-2,3-dihydro-1H-inden-1-yl)oxy)phenyl)-3-hydroxyisothiazole 1-oxide], the EC50 is < 300 nM.
For `Cc1cccc(-c2cccc3c2CC[C@H]3Oc2ccc(-c3cc(O)n[s+]3[O-])cc2)c1` (stereo partly drawn) [Example 24, 5-(4-(((R)-4-(3-methylphenyl)-2,3-dihydro-1H-inden-1-yl)oxy)phenyl)-3-hydroxyisothiazole 1-oxide], the EC50 is < 300 nM.
To `Cc1cc(OCCC(C)(C)O)cc(C)c1-c1cccc2c1OCC2Oc1ccc(-c2cc(O)n[s+]2[O-])cc1` (single isomer, unassigned) [Example 148-b, 3-hydroxy-5-(4-((7-(4-(3-hydroxy-3-methylbutoxy)-2,6-dimethylphenyl)-2,3-dihydrobenzofuran-3-yl)oxy)phenyl)isothiazole 1-oxide] belongs 300 to 3000 nM; to `Cc1cc(Oc2cccc3c2CC[C@H]3Oc2ccc(-c3cc(O)n[s+]3[O-])cc2)ccn1` (stereo partly drawn) [Example 135, 3-hydroxy-5-(4-(((R)-4-((2-methylpyridin-4-yl)oxy)-2,3-dihydro-1H-inden-1-yl)oxy)phenyl)isothiazole 1-oxide], < 300 nM; to `COc1ccc(C)cc1-c1cccc2c1CC[C@H]2Oc1ccc(-c2cc(O)n[s+]2[O-])cc1` (stereo partly drawn) [Example 45, 5-(4-(((R)-4-(2-methoxy-5-methylphenyl)-2,3-dihydro-1H-inden-1-yl)oxy)phenyl)-3-hydroxyisothiazole 1-oxide], < 300 nM.
As for `[O-][s+]1nc(O)cc1-c1ccc(O[C@@H]2CCc3c(-c4cccc(Cl)c4)cccc32)cc1` (stereo partly drawn) [Example 8, 5-(4-(((R)-4-(3-chlorophenyl)-2,3-dihydro-1H-inden-1-yl)oxy)phenyl)-3-hydroxyisothiazole 1-oxide], the EC50 is < 300 nM.
The value for `COCCN(C)C(=O)c1ccc(Oc2cccc3c2CC[C@H]3Oc2ccc(-c3cc(O)n[s+]3[O-])cc2)cc1` (stereo partly drawn) [Example 146, 4-(((R)-1-(4-(3-hydroxy-1-oxidoisothiazol-5-yl)phenoxy)-2,3-dihydro-1H-inden-4-yl)oxy)-N-(2-methoxyethyl)-N-methylbenzamide] was < 300 nM.
